Experimental data reported in PubChem BioAssay (NCI).
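Cultured in 96-well plates, cells were exposed to test compound for 48 hours across five concentrations. TGI: concentration producing complete growth inhibition.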

Key:
Assay in all cases: inhibition of tumour cell growth, NCI panel, 48 h
786-0 renal = test system: 786-0 renal
A498 renal = test system: A498 renal
A549 NSCLC = test system: A549 NSCLC
ACHN renal = test system: ACHN renal
BT-549 breast = test system: BT-549 breast
CAKI-1 renal = test system: CAKI-1 renal
COLO 205 colon = test system: COLO 205 colon
EKVX NSCLC = test system: EKVX NSCLC
HCC-2998 colon = test system: HCC-2998 colon
HCT-116 colon = test system: HCT-116 colon
HCT-15 colon = test system: HCT-15 colon
HOP-62 NSCLC = test system: HOP-62 NSCLC
HOP-92 NSCLC = test system: HOP-92 NSCLC
IGROV1 ovarian = test system: IGROV1 ovarian
K-562 leukemia = test system: K-562 leukemia
KM12 colon = test system: KM12 colon
LOX IMVI melanoma = test system: LOX IMVI melanoma
M14 melanoma = test system: M14 melanoma
MALME-3M melanoma = test system: MALME-3M melanoma
MCF7 breast = test system: MCF7 breast
MDA-MB-231 breast = test system: MDA-MB-231 breast
MDA-N = test system: MDA-N
MOLT-4 leukemia = test system: MOLT-4 leukemia
NCI-H226 lung = test system: NCI-H226 lung
NCI-H23 lung = test system: NCI-H23 lung
NCI-H460 lung = test system: NCI-H460 lung
NCI-H522 lung = test system: NCI-H522 lung
NCI/ADR-RES ovarian = test system: NCI/ADR-RES ovarian
OVCAR-3 ovarian = test system: OVCAR-3 ovarian
OVCAR-4 ovarian = test system: OVCAR-4 ovarian
OVCAR-5 ovarian = test system: OVCAR-5 ovarian
OVCAR-8 ovarian = test system: OVCAR-8 ovarian
PC-3 prostate = test system: PC-3 prostate
RPMI-8226 leukemia = test system: RPMI-8226 leukemia
RXF 393 renal = test system: RXF 393 renal
SF-268 CNS = test system: SF-268 CNS
SF-295 CNS = test system: SF-295 CNS
SF-539 CNS = test system: SF-539 CNS
SK-MEL-2 melanoma = test system: SK-MEL-2 melanoma
SK-MEL-28 melanoma = test system: SK-MEL-28 melanoma
SK-MEL-5 melanoma = test system: SK-MEL-5 melanoma
SK-OV-3 ovarian = test system: SK-OV-3 ovarian
SN12C renal = test system: SN12C renal
SNB-19 CNS = test system: SNB-19 CNS
SNB-75 CNS = test system: SNB-75 CNS
SW-620 colon = test system: SW-620 colon
T-47D breast = test system: T-47D breast
TK-10 renal = test system: TK-10 renal
U251 CNS = test system: U251 CNS
UACC-257 melanoma = test system: UACC-257 melanoma
UO-31 renal = test system: UO-31 renal
DU-145 prostate = test system: DU-145 prostate
HL-60(TB) leukemia = test system: HL-60(TB) leukemia
HT29 colon = test system: HT29 colon
MDA-MB-435 = test system: MDA-MB-435
SR leukemia = test system: SR leukemia
UACC-62 melanoma = test system: UACC-62 melanoma

SMILES: CCCCCCCCC#CCCCCCCCCCC[C@@H]1C(=O)O[C@H](C)[C@@H]1O (tested in a mixture with another compound)
- TGI (786-0 renal): 31.4 µM
- TGI (A498 renal): > 100 µM
- TGI (A549 NSCLC): 28.6 µM
- TGI (ACHN renal): 45.2 µM
- TGI (BT-549 breast): 38.5 µM
- TGI (CAKI-1 renal): 29.1 µM
- TGI (COLO 205 colon): > 100 µM
- TGI (EKVX NSCLC): 54.9 µM
- TGI (HCC-2998 colon): > 100 µM
- TGI (HCT-116 colon): > 100 µM
- TGI (HCT-15 colon): > 100 µM
- TGI (HOP-62 NSCLC): 39 µM
- TGI (HOP-92 NSCLC): 25.1 µM
- TGI (IGROV1 ovarian): 32.7 µM
- TGI (K-562 leukemia): 21.4 µM
- TGI (KM12 colon): 21.9 µM
- TGI (LOX IMVI melanoma): 28.8 µM
- TGI (M14 melanoma): 41 µM
- TGI (MALME-3M melanoma): 44 µM
- TGI (MCF7 breast): 50.5 µM
- TGI (MDA-MB-231 breast): 94.6 µM
- TGI (MDA-N): 79.6 µM
- TGI (MOLT-4 leukemia): 33.5 µM
- TGI (NCI-H226 lung): > 100 µM
- TGI (NCI-H23 lung): 22.3 µM
- TGI (NCI-H460 lung): 35.8 µM
- TGI (NCI-H522 lung): 18.8 µM
- TGI (NCI/ADR-RES ovarian): 23.8 µM
- TGI (OVCAR-3 ovarian): 38.6 µM
- TGI (OVCAR-4 ovarian): 54.9 µM
- TGI (OVCAR-5 ovarian): > 100 µM
- TGI (OVCAR-8 ovarian): 29.1 µM
- TGI (PC-3 prostate): 46.9 µM
- TGI (RPMI-8226 leukemia): 39.9 µM
- TGI (RXF 393 renal): 28.4 µM
- TGI (SF-268 CNS): 30.4 µM
- TGI (SF-295 CNS): 65.4 µM
- TGI (SF-539 CNS): 42.1 µM
- TGI (SK-MEL-2 melanoma): 46.4 µM
- TGI (SK-MEL-28 melanoma): > 100 µM
- TGI (SK-MEL-5 melanoma): 26.8 µM
- TGI (SK-OV-3 ovarian): > 100 µM
- TGI (SN12C renal): 32.3 µM
- TGI (SNB-19 CNS): 38.1 µM
- TGI (SNB-75 CNS): 52.4 µM
- TGI (SW-620 colon): 36.4 µM
- TGI (T-47D breast): > 100 µM
- TGI (TK-10 renal): 40.8 µM
- TGI (U251 CNS): > 100 µM
- TGI (UACC-257 melanoma): > 100 µM
- TGI (UO-31 renal): 35.3 µM

SMILES: COc1ccc2cc(C(C)C(=O)N3C(=O)OCC3(C)C)ccc2c1 (configuration not stated)
- TGI (786-0 renal): > 100 µM
- TGI (A498 renal): > 100 µM
- TGI (A549 NSCLC): > 100 µM
- TGI (ACHN renal): > 100 µM
- TGI (BT-549 breast): > 100 µM
- TGI (COLO 205 colon): > 100 µM
- TGI (DU-145 prostate): > 100 µM
- TGI (EKVX NSCLC): > 100 µM
- TGI (HCC-2998 colon): > 100 µM
- TGI (HCT-116 colon): > 100 µM
- TGI (HCT-15 colon): > 100 µM
- TGI (HL-60(TB) leukemia): > 100 µM
- TGI (HOP-62 NSCLC): > 100 µM
- TGI (HOP-92 NSCLC): > 100 µM
- TGI (HT29 colon): > 100 µM
- TGI (IGROV1 ovarian): > 100 µM
- TGI (K-562 leukemia): > 100 µM
- TGI (LOX IMVI melanoma): > 100 µM
- TGI (M14 melanoma): > 100 µM
- TGI (MALME-3M melanoma): > 100 µM
- TGI (MCF7 breast): > 100 µM
- TGI (MDA-MB-231 breast): > 100 µM
- TGI (MDA-MB-435): > 100 µM
- TGI (MDA-N): > 100 µM
- TGI (MOLT-4 leukemia): > 100 µM
- TGI (NCI-H226 lung): > 100 µM
- TGI (NCI-H23 lung): > 100 µM
- TGI (NCI-H460 lung): > 100 µM
- TGI (NCI/ADR-RES ovarian): > 100 µM
- TGI (OVCAR-3 ovarian): > 100 µM
- TGI (OVCAR-4 ovarian): > 100 µM
- TGI (OVCAR-5 ovarian): > 100 µM
- TGI (OVCAR-8 ovarian): > 100 µM
- TGI (PC-3 prostate): > 100 µM
- TGI (RPMI-8226 leukemia): > 100 µM
- TGI (SF-268 CNS): > 100 µM
- TGI (SF-295 CNS): > 100 µM
- TGI (SK-MEL-28 melanoma): > 100 µM
- TGI (SK-MEL-5 melanoma): > 100 µM
- TGI (SK-OV-3 ovarian): > 100 µM
- TGI (SN12C renal): > 100 µM
- TGI (SNB-19 CNS): > 100 µM
- TGI (SNB-75 CNS): > 100 µM
- TGI (SR leukemia): > 100 µM
- TGI (SW-620 colon): > 100 µM
- TGI (T-47D breast): > 100 µM
- TGI (TK-10 renal): > 100 µM
- TGI (U251 CNS): > 100 µM
- TGI (UACC-257 melanoma): > 100 µM
- TGI (UACC-62 melanoma): > 100 µM
- TGI (UO-31 renal): > 100 µM
